Non-standard residues stand in square brackets, D forms with d. Residues, ends and D or L forms follow the SMILES beside them. pGlu = O=C1CC[C@@H](C(=O)O)N1; Thz = O=C(O)[C@@H]1CSCN1
What was measured:
[1] = The drug is tested on Blautia hansenii strain: DSM20583 for biotransformation. The drug concentrations were measured before and after a 12-h incubation by liquid-chromatography-coupled mass spectrometry (LC–MS); settings: 2 µM
[2] = The drug is tested on Bacteroides fragilis strain: HMW610 for biotransformation. The drug concentrations were measured before and after a 12-h incubation by liquid-chromatography-coupled mass spectrometry (LC–MS); settings: 2 µM
[3] = The drug is tested on Alistipes indistinctus strain: DSM22520 for biotransformation. The drug concentrations were measured before and after a 12-h incubation by liquid-chromatography-coupled mass spectrometry (LC–MS); settings: 2 µM
[4] = The drug is tested on Escherichia coli strain: BW25113 for biotransformation. The drug concentrations were measured before and after a 12-h incubation by liquid-chromatography-coupled mass spectrometry (LC–MS); settings: 2 µM
[5] = The drug is tested on Enterobacter cancerogenus strain: ATCC35316 for biotransformation. The drug concentrations were measured before and after a 12-h incubation by liquid-chromatography-coupled mass spectrometry (LC–MS); settings: 2 µM
[6] = anaerostipes sp., 12 h, 2 µM
Description: The drug is tested on Anaerostipes sp. strain: fecal isolate for biotransformation. The drug concentrations were measured before and after a 12-h incubation by liquid-chromatography-coupled mass spectrometry (LC–MS)

[7] = bacteroides stercoris, 12 h, 2 µM
Description: The drug is tested on Bacteroides stercoris strain: ATCC43183 for biotransformation. The drug concentrations were measured before and after a 12-h incubation by liquid-chromatography-coupled mass spectrometry (LC–MS)

[8] = enterocloster bolteae, 12 h, 2 µM
Description: The drug is tested on Clostridium bolteae strain: ATCCBAA-613 for biotransformation. The drug concentrations were measured before and after a 12-h incubation by liquid-chromatography-coupled mass spectrometry (LC–MS)

[9] = bacteroides fragilis, 12 h, 2 µM
Description: The drug is tested on Bacteroides fragilis strain: DS-208 for biotransformation. The drug concentrations were measured before and after a 12-h incubation by liquid-chromatography-coupled mass spectrometry (LC–MS)

[10] = The drug is tested on Bifidobacterium longum subsp. Infantis strain: CCUG52486 for biotransformation. The drug concentrations were measured before and after a 12-h incubation by liquid-chromatography-coupled mass spectrometry (LC–MS); settings: 2 µM
[11] = The drug is tested on Parabacteroides merdae strain: ATCC43184 for biotransformation. The drug concentrations were measured before and after a 12-h incubation by liquid-chromatography-coupled mass spectrometry (LC–MS); settings: 2 µM
[12] = The drug is tested on Clostridium symbiosum strain: ATCC14940 for biotransformation. The drug concentrations were measured before and after a 12-h incubation by liquid-chromatography-coupled mass spectrometry (LC–MS); settings: 2 µM
[13] = The drug is tested on Clostridium ramosum strain: DSM1402 for biotransformation. The drug concentrations were measured before and after a 12-h incubation by liquid-chromatography-coupled mass spectrometry (LC–MS); settings: thomasclavelia ramosa, 2 µM
[14] = The drug is tested on Bacteroides vulgatus strain: ATCC8482 for biotransformation. The drug concentrations were measured before and after a 12-h incubation by liquid-chromatography-coupled mass spectrometry (LC–MS); settings: phocaeicola vulgatus, 2 µM
[15] = The drug is tested on Bacteroides pectinophilus strain: ATCC43243 for biotransformation. The drug concentrations were measured before and after a 12-h incubation by liquid-chromatography-coupled mass spectrometry (LC–MS); settings: 2 µM
[16] = The drug is tested on Ruminococcus torques strain: ATCC27756 for biotransformation. The drug concentrations were measured before and after a 12-h incubation by liquid-chromatography-coupled mass spectrometry (LC–MS); assay type: ADME; set-up: dose 2 uM, timepoint 0 vs 12 hours; settings: 2 µM
[17] = The drug is tested on Clostridium asparagiforme strain: DSM15981 for biotransformation. The drug concentrations were measured before and after a 12-h incubation by liquid-chromatography-coupled mass spectrometry (LC–MS); assay type: ADME; set-up: dose 2 uM, timepoint 0 vs 12 hours; settings: enterocloster asparagiformis, 2 µM
[18] = The drug is tested on Eubacterium ventriosum strain: ATCC27560 for biotransformation. The drug concentrations were measured before and after a 12-h incubation by liquid-chromatography-coupled mass spectrometry (LC–MS); assay type: ADME; set-up: dose 2 uM, timepoint 0 vs 12 hours; settings: 2 µM
[19] = bacteroides intestinalis, 12 h, 2 µM
Description: The drug is tested on Bacteroides intestinalis strain: DSM17393 for biotransformation. The drug concentrations were measured before and after a 12-h incubation by liquid-chromatography-coupled mass spectrometry (LC–MS)

[20] = The drug is tested on Bacteroides dorei strain: DSM17855 for biotransformation. The drug concentrations were measured before and after a 12-h incubation by liquid-chromatography-coupled mass spectrometry (LC–MS); settings: phocaeicola dorei, 2 µM

Structure (SMILES) | Bacterial Biotransformation [1] | Bacterial Biotransformation [2] | Bacterial Biotransformation [3] | Bacterial Biotransformation [4] | Bacterial Biotransformation [5] | Bacterial Biotransformation [6] | Bacterial Biotransformation [7] | Bacterial Biotransformation [8] | Bacterial Biotransformation [9] | Bacterial Biotransformation [10] | Bacterial Biotransformation [11] | Bacterial Biotransformation [12] | Bacterial Biotransformation [13] | Bacterial Biotransformation [14] | Bacterial Biotransformation [15] | Bacterial Biotransformation [16] | Bacterial Biotransformation [17] | Bacterial Biotransformation [18] | Bacterial Biotransformation [19] | Bacterial Biotransformation [20]
CC(C)NCC(O)c1ccc(NS(C)(=O)=O)cc1 (configuration not stated) [SOTALOL] | Compound NOT metabolized | Compound metabolized | Compound NOT metabolized | Compound NOT metabolized | Compound NOT metabolized | Compound NOT metabolized | Compound NOT metabolized | Compound NOT metabolized | Compound metabolized | Compound NOT metabolized | Compound NOT metabolized | Compound NOT metabolized | Compound NOT metabolized | Compound NOT metabolized | Compound NOT metabolized | Compound NOT metabolized | Compound NOT metabolized | – | – | –
CNS(=O)(=O)Cc1ccc2[nH]cc(CCN(C)C)c2c1.O=C(O)CCC(=O)O [SUMATRIPTAN SUCCINATE] | Compound NOT metabolized | Compound metabolized | Compound NOT metabolized | Compound NOT metabolized | Compound metabolized | Compound NOT metabolized | – | Compound NOT metabolized | Compound metabolized | Compound NOT metabolized | Compound NOT metabolized | Compound NOT metabolized | Compound NOT metabolized | Compound NOT metabolized | Compound NOT metabolized | Compound NOT metabolized | Compound NOT metabolized | Compound NOT metabolized | Compound NOT metabolized | –
Cc1ccc(-c2nc3ccc(C)cn3c2CC(=O)N(C)C)cc1 [ZOLPIDEM] | Compound NOT metabolized | Compound NOT metabolized | Compound NOT metabolized | Compound NOT metabolized | Compound NOT metabolized | Compound NOT metabolized | Compound NOT metabolized | Compound NOT metabolized | Compound NOT metabolized | Compound NOT metabolized | Compound NOT metabolized | Compound NOT metabolized | Compound NOT metabolized | Compound NOT metabolized | Compound NOT metabolized | Compound NOT metabolized | Compound NOT metabolized | Compound NOT metabolized | Compound NOT metabolized | –
O=C1CC[C@@H](C(=O)N2CSC[C@H]2C(=O)O)N1 [PIDOTIMOD] ([pGlu]-[Thz]-OH) | Compound metabolized | Compound metabolized | Compound NOT metabolized | Compound NOT metabolized | Compound NOT metabolized | Compound NOT metabolized | Compound metabolized | Compound NOT metabolized | Compound metabolized | Compound NOT metabolized | – | Compound NOT metabolized | Compound NOT metabolized | Compound NOT metabolized | Compound NOT metabolized | Compound NOT metabolized | Compound NOT metabolized | Compound NOT metabolized | Compound NOT metabolized | Compound metabolized
O=C(CCCN1CCC2(CC1)C(=O)NCN2c1ccccc1)c1ccc(F)cc1 [SPIPERONE] | Compound NOT metabolized | Compound NOT metabolized | Compound NOT metabolized | Compound NOT metabolized | Compound NOT metabolized | Compound NOT metabolized | Compound NOT metabolized | Compound NOT metabolized | Compound NOT metabolized | Compound NOT metabolized | Compound NOT metabolized | Compound NOT metabolized | Compound NOT metabolized | – | Compound NOT metabolized | Compound NOT metabolized | Compound NOT metabolized | Compound NOT metabolized | Compound NOT metabolized | Compound NOT metabolized
C=CC[C@@H]1/C=C(\C)C[C@H](C)C[C@H](OC)[C@H]2O[C@@](O)(C(=O)C(=O)N3CCCC[C@H]3C(=O)O[C@H](/C(C)=C/[C@@H]3CC[C@@H](O)[C@H](OC)C3)[C@H](C)[C@@H](O)CC1=O)[C@H](C)C[C@@H]2OC.O [TACROLIMUS] | Compound metabolized | – | Compound metabolized | Compound metabolized | Compound metabolized | Compound metabolized | Compound metabolized | Compound metabolized | Compound NOT metabolized | Compound NOT metabolized | Compound NOT metabolized | Compound metabolized | Compound metabolized | Compound NOT metabolized | Compound NOT metabolized | Compound NOT metabolized | Compound metabolized | Compound NOT metabolized | Compound metabolized | Compound metabolized
COc1ccc(CN2CCNCC2)c(OC)c1OC.Cl.Cl [TRIMETAZIDINE DIHYDROCHLORIDE] | Compound NOT metabolized | – | Compound NOT metabolized | Compound NOT metabolized | Compound NOT metabolized | Compound NOT metabolized | Compound metabolized | Compound NOT metabolized | – | Compound metabolized | Compound metabolized | Compound NOT metabolized | Compound NOT metabolized | Compound metabolized | Compound NOT metabolized | Compound NOT metabolized | Compound metabolized | Compound NOT metabolized | Compound metabolized | Compound metabolized
CNNCc1ccc(C(=O)NC(C)C)cc1 [PROCARBAZINE] | Compound NOT metabolized | Compound metabolized | Compound NOT metabolized | Compound NOT metabolized | Compound NOT metabolized | Compound NOT metabolized | Compound NOT metabolized | Compound NOT metabolized | – | Compound NOT metabolized | Compound NOT metabolized | Compound NOT metabolized | Compound NOT metabolized | Compound NOT metabolized | Compound NOT metabolized | Compound NOT metabolized | Compound NOT metabolized | Compound NOT metabolized | – | Compound NOT metabolized

— ChEMBL document CHEMBL5303573, “Mapping human microbiome drug metabolism by gut bacteria and their genes” (Nature, 2019)
